From PubChem BioAssay (NCI) come the findings set out here.

Test systems include A549 NSCLC; ACHN renal; DLD-1 colon; DMS 114 small cell lung; DMS 273 small cell lung; EKVX NSCLC; HOP-18 NSCLC; HS 578T breast; HT29 colon; K-562 leukemia; KM20L2 colon; LXFL 529 NSCLC; OVCAR-3 ovarian; SK-MEL-5 melanoma; SNB-78 CNS; SR leukemia; P388/ADR leukemia.
What all share (experiment): NCI tumour cell line growth inhibition, 48 h

The structures appear in SMILES notation. “And” between values parts separate entries of the source, which are not always exact repeats. Equal entries are not always repeated.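 The compound was tested at five concentrations on cells cultured in 96-well plates, with a 48-hour exposure period. At the GI50, growth is halved. At the TGI there is no net growth.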

Regarding `Nc1ccc(S(=O)(=O)Nc2ccc(Nc3c4ccccc4nc4ccccc34)cc2)cc1`, the TGI in the assay on A549 NSCLC was 0.919 µM; in the assay on ACHN renal, 0.149 µM; in the assay on DLD-1 colon it was 16.6 µM; in the assay on DMS 114 small cell lung it was 1.9 µM; in the assay on DMS 273 small cell lung, 3.08 µM; in the assay on EKVX NSCLC it was 14.7 µM. The TGI with HOP-18 NSCLC amounted to 16.1 µM; with HS 578T breast, 54.7 µM; with HT29 colon it was 5.4 µM; with K-562 leukemia it was 17 µM; in the assay on KM20L2 colon, 10.6 µM; in the assay with LXFL 529 NSCLC, 20.6 µM. Also, the TGI came out at 4.57 µM in the assay with OVCAR-3 ovarian, 2 µM in the assay with SK-MEL-5 melanoma, 26.2 µM in the assay on SNB-78 CNS and 0.533 µM with SR leukemia.
With `N=[N+]=CC(=O)CCC(NC(=O)C(CCC(=O)C=[N+]=N)NC(=O)CCC(N)C(=O)O)C(=O)O` (stereo not given), the TGI in the assay on A549 NSCLC, in the assay with DLD-1 colon, in the assay with DMS 114 small cell lung, with DMS 273 small cell lung, in the assay on EKVX NSCLC and in the assay on HOP-18 NSCLC was over 100 µM throughout. Further, the TGI in the assay on HT29 colon, in the assay on K-562 leukemia, in the assay on KM20L2 colon, in the assay with OVCAR-3 ovarian, in the assay on P388/ADR leukemia and in the assay with SK-MEL-5 melanoma was over 100 µM in each case. The TGI with SNB-78 CNS was over 100 µM.
Consider `Nc1nc2n[nH]nc2c(=O)[nH]1`, for which the TGI is over 100 µM in the assay with A549 NSCLC; over 59.7 µM in the assay on ACHN renal; over 100 µM in the assay on DLD-1 colon; 54.7 µM in the assay on DMS 114 small cell lung; 18.2 µM with DMS 273 small cell lung; over 100 µM in the assay with EKVX NSCLC. For the same compound, the TGI in the assay with HOP-18 NSCLC is 85.3 µM; with HS 578T breast, 20.4 µM; in the assay on HT29 colon it was over 100 µM; in the assay on K-562 leukemia, over 100 µM; with KM20L2 colon it was over 100 µM; with LXFL 529 NSCLC, over 100 µM. Moreover, the TGI in the assay with OVCAR-3 ovarian was 73.8 µM; in the assay with SK-MEL-5 melanoma, 13.8 µM; with SNB-78 CNS, over 100 µM; in the assay with SR leukemia, 20.4 µM.
As for `C[n+]1ccc(Nc2ccc(NC(=O)c3ccc(Nc4cc[n+](C)c5ccc([N+](=O)[O-])cc45)cc3[N+](=O)[O-])cc2)cc1`, the TGI in the assay with A549 NSCLC is over 100 µM; in the assay with ACHN renal, over 100 µM; in the assay with DLD-1 colon it was over 100 µM; in the assay on DMS 114 small cell lung, 27.2 µM and 41.5 µM; in the assay with DMS 273 small cell lung, over 100 µM; with EKVX NSCLC it was over 92.6 µM. Besides, the TGI in the assay on HOP-18 NSCLC is 50.4 µM and 59.5 µM; with HT29 colon it was over 100 µM; with K-562 leukemia, over 77.6 µM; in the assay on KM20L2 colon, over 100 µM; in the assay with LXFL 529 NSCLC, 50.8 µM; in the assay with OVCAR-3 ovarian it was 54.6 µM and 54.3 µM. Moreover, the TGI in the assay on P388/ADR leukemia was > 54.2 µM and 17.2 µM; with SK-MEL-5 melanoma, 70.4 µM and > 70.4 µM; with SNB-78 CNS, over 100 µM; with SR leukemia, over 100 µM. The GI50 with P388/ADR leukemia is 32.9 µM and 12 µM; in the assay with SNB-78 CNS, 42.3 µM and > 100 µM.
With `C1CSC(=[N+]2CC[N+](=C3SCCS3)CC2)S1`, the TGI with A549 NSCLC, in the assay with ACHN renal, in the assay on DLD-1 colon, with DMS 114 small cell lung, in the assay on DMS 273 small cell lung and with EKVX NSCLC was over 100 µM in each case. Also, the TGI with HOP-18 NSCLC, with HT29 colon, in the assay with K-562 leukemia, with KM20L2 colon, in the assay with LXFL 529 NSCLC and in the assay on OVCAR-3 ovarian was over 100 µM each time. The TGI in the assay with SK-MEL-5 melanoma, with SNB-78 CNS and in the assay with SR leukemia was over 100 µM in each case.
For `Nc1c(C(=O)Nc2ccc(C3=NCCN3)cc2)cccc1C(=O)Nc1ccc(C2=NCCN2)cc1`, the TGI with A549 NSCLC, in the assay on DLD-1 colon, in the assay on DMS 114 small cell lung, in the assay on DMS 273 small cell lung, in the assay on HOP-18 NSCLC and in the assay on HT29 colon was over 100 µM in each case. Besides, the TGI with K-562 leukemia, in the assay with KM20L2 colon, in the assay with OVCAR-3 ovarian, in the assay on P388/ADR leukemia, in the assay with SK-MEL-5 melanoma and with SNB-78 CNS was over 100 µM throughout.
